In ChEMBL document CHEMBL2016493, “Design, synthesis, synergistic antimicrobial activity and cytotoxicity of 4-aryl substituted 3,4-dihydropyrimidinones of curcumin” (Bioorg Med Chem Lett, 2012):
Calls of active or inactive are those of the source. No cut-off for these calls is given here.

Key:
[1] = system: Aspergillus niger; experiment: Antifungal activity against Aspergillus niger MTCC 1108 at 40 uM/ml after 48 hrs by paper disc diffusion method; assay type: functional; conditions: MTCC 1108, 48 h, read-out: IZ
[2] = system: Trichoderma viride; experiment: Antifungal activity against Trichoderma viride MTCC 1107 at 40 uM/ml after 48 hrs by paper disc diffusion method; assay type: functional; conditions: for zone of inhibition: MTCC 1107, 48 h, read-out: IZ
[3] = system: Trichoderma viride; experiment: Antifungal activity against Trichoderma viride MTCC 1107 at 20 uM/ml after 48 hrs by paper disc diffusion method; assay type: functional
[4] = system: Burkholderia pseudomallei; experiment: Antibacterial activity against Burkholderia pseudomallei NTCC 10274 at 40 uM/ml after 24 hrs by kirby-bauer method; assay type: functional
[5] = system: Staphylococcus aureus; experiment: Antibacterial activity against Staphylococcus aureus ATCC 11632 at 160 uM/ml after 24 hrs by kirby-bauer method; assay type: functional
[6] = system: Curvularia lunata; experiment: Antifungal activity against Curvularia lunata MTCC 581 at 40 uM/ml after 48 hrs by paper disc diffusion method; assay type: functional; conditions: for zone of inhibition at 40 µM: MTCC 581, 48 h, read-out: IZ
[7] = system: QG-56; experiment: Cytotoxicity against human QG56 cells after 48 hrs by MTT assay; assay type: functional, cell-based
[8] = system: Aspergillus niger; experiment: Antifungal activity against Aspergillus niger MTCC 1108 at 20 uM/ml after 48 hrs by paper disc diffusion method; assay type: functional; conditions: MTCC 1108, 48 h, read-out: IZ
[9] = system: Salmonella typhimurium; experiment: Antibacterial activity against Salmonella typhimurium ATCC 23564 at 80 uM/ml after 24 hrs by kirby-bauer method; assay type: functional, Salmonella enterica subsp. enterica serovar Typhimurium; conditions: Salmonella enterica, ATCC 23564, 24 h; read-out: IZ
[10] = system: Burkholderia pseudomallei; experiment: Antibacterial activity against Burkholderia pseudomallei NTCC 10274 at 20 uM/ml after 24 hrs by kirby-bauer method; assay type: functional
[11] = system: Escherichia coli; experiment: Antibacterial activity against Escherichia coli ATCC 35218 at 160 uM/ml after 24 hrs by kirby-bauer method; assay type: functional; conditions: ATCC 35218, 24 h, read-out: IZ
[12] = system: Aspergillus niger; experiment: Antifungal activity against Aspergillus niger MTCC 1108 at 80 uM/ml after 48 hrs by paper disc diffusion method; assay type: functional; conditions: MTCC 1108, 48 h, read-out: IZ
[13] = system: Trichoderma viride; experiment: Antifungal activity against Trichoderma viride MTCC 1107 at 160 uM/ml after 48 hrs by paper disc diffusion method; assay type: functional; conditions: MTCC 1107, 48 h, read-out: IZ
[14] = system: Pseudomonas aeruginosa; experiment: Antibacterial activity against Pseudomonas aeruginosa ATCC 15499 at 80 uM/ml after 24 hrs by kirby-bauer method; assay type: functional; conditions: ATCC 15499, 24 h, read-out: IZ
[15] = system: Aspergillus flavus; experiment: Antifungal activity against Aspergillus flavus MTCC 1021 at 160 uM/ml after 48 hrs by paper disc diffusion method; assay type: functional
[16] = system: Pseudomonas aeruginosa; experiment: Antibacterial activity against Pseudomonas aeruginosa ATCC 15499 at 160 uM/ml after 24 hrs by kirby-bauer method; assay type: functional; conditions: ATCC 15499, 24 h, read-out: IZ
[17] = system: HCT-116
[18] = system: Escherichia coli; experiment: Antibacterial activity against Escherichia coli ATCC 35218 at 80 uM/ml after 24 hrs by kirby-bauer method; assay type: functional; conditions: ATCC 35218, 24 h, read-out: IZ
[19] = system: Escherichia coli; experiment: Antibacterial activity against Escherichia coli ATCC 35218 at 20 uM/ml after 24 hrs by kirby-bauer method; assay type: functional
[20] = system: Curvularia lunata; experiment: Antifungal activity against Curvularia lunata MTCC 581 at 160 uM/ml after 48 hrs by paper disc diffusion method; assay type: functional; conditions: MTCC 581, 48 h, read-out: IZ
[21] = system: Aspergillus niger; experiment: Antifungal activity against Aspergillus niger MTCC 1108 at 160 uM/ml after 48 hrs by paper disc diffusion method; assay type: functional
[22] = system: Burkholderia pseudomallei; experiment: Antibacterial activity against Burkholderia pseudomallei NTCC 10274 at 80 uM/ml after 24 hrs by kirby-bauer method; assay type: functional; conditions: NTCC 10274, 24 h, read-out: IZ
[23] = system: HepG2
[24] = system: Aspergillus flavus; experiment: Antifungal activity against Aspergillus flavus MTCC 1021 at 20 uM/ml after 48 hrs by paper disc diffusion method; assay type: functional
[25] = system: Curvularia lunata; experiment: Antifungal activity against Curvularia lunata MTCC 581 at 20 uM/ml after 48 hrs by paper disc diffusion method; assay type: functional; conditions: for zone of inhibition at 20 µM: MTCC 581, 48 h, read-out: IZ
[26] = system: Aspergillus flavus; experiment: Antifungal activity against Aspergillus flavus MTCC 1021 at 40 uM/ml after 48 hrs by paper disc diffusion method; assay type: functional
[27] = system: Staphylococcus aureus; experiment: Antibacterial activity against Staphylococcus aureus ATCC 11632 at 80 uM/ml after 24 hrs by kirby-bauer method; assay type: functional; conditions: ATCC 11632, 24 h, read-out: IZ
[28] = system: Trichoderma viride; experiment: Antifungal activity against Trichoderma viride MTCC 1107 at 80 uM/ml after 48 hrs by paper disc diffusion method; assay type: functional; conditions: for zone of inhibition at 80 µM: MTCC 1107, 48 h, read-out: IZ
[29] = system: Salmonella typhimurium; experiment: Antibacterial activity against Salmonella typhimurium ATCC 23564 at 20 uM/ml after 24 hrs by kirby-bauer method; assay type: functional; conditions: Salmonella enterica subsp. enterica serovar Typhimurium
[30] = system: Staphylococcus aureus; experiment: Antibacterial activity against Staphylococcus aureus ATCC 11632 at 40 uM/ml after 24 hrs by kirby-bauer method; assay type: functional
[31] = system: Escherichia coli; experiment: Antibacterial activity against Escherichia coli ATCC 35218 at 40 uM/ml after 24 hrs by kirby-bauer method; assay type: functional
[32] = system: Pseudomonas aeruginosa; experiment: Antibacterial activity against Pseudomonas aeruginosa ATCC 15499 at 20 uM/ml after 24 hrs by kirby-bauer method; assay type: functional
[33] = system: Burkholderia pseudomallei; experiment: Antibacterial activity against Burkholderia pseudomallei NTCC 10274 at 160 uM/ml after 24 hrs by kirby-bauer method; assay type: functional; conditions: NTCC 10274, 24 h, read-out: IZ
[34] = system: Curvularia lunata; experiment: Antifungal activity against Curvularia lunata MTCC 581 at 80 uM/ml after 48 hrs by paper disc diffusion method; assay type: functional; conditions: MTCC 581, 48 h, read-out: IZ
[35] = system: Salmonella typhimurium; experiment: Antibacterial activity against Salmonella typhimurium ATCC 23564 at 40 uM/ml after 24 hrs by kirby-bauer method; assay type: functional, Salmonella enterica subsp. enterica serovar Typhimurium; conditions: Salmonella enterica, ATCC 23564, 24 h; read-out: IZ
[36] = system: Pseudomonas aeruginosa; experiment: Antibacterial activity against Pseudomonas aeruginosa ATCC 15499 at 40 uM/ml after 24 hrs by kirby-bauer method; assay type: functional
[37] = system: Aspergillus flavus; experiment: Antifungal activity against Aspergillus flavus MTCC 1021 at 80 uM/ml after 48 hrs by paper disc diffusion method; assay type: functional
[38] = system: Salmonella typhimurium; experiment: Antibacterial activity against Salmonella typhimurium ATCC 23564 at 160 uM/ml after 24 hrs by kirby-bauer method; assay type: functional, Salmonella enterica subsp. enterica serovar Typhimurium; conditions: Salmonella enterica, ATCC 23564, 24 h; read-out: IZ
[39] = system: Staphylococcus aureus; experiment: Antibacterial activity against Staphylococcus aureus ATCC 11632 at 20 uM/ml after 24 hrs by kirby-bauer method; assay type: functional
[40] = system: Aspergillus niger; experiment: Antifungal activity against Aspergillus niger MTCC 1108 after 48 hrs by poison food method; assay type: functional
[41] = system: Aspergillus flavus; experiment: Antifungal activity against Aspergillus flavus MTCC 1021 after 48 hrs by poison food method MTCC 1021; assay type: functional

Row | SMILES | zone of inhibition [2] | inhibition zone (IZ) [3] | zone of inhibition at 40 µM [6] | IC50 [7] | zone of inhibition at 80 µM [9] | zone of inhibition at 160 µM [11] | zone of inhibition at 160 µM [13] | zone of inhibition at 80 µM [14] | zone of inhibition at 160 µM [16] | IC50 [17] | zone of inhibition at 80 µM [18] | inhibition zone (IZ) [19] | zone of inhibition at 160 µM [20] | zone of inhibition at 80 µM [22] | IC50 [23] | zone of inhibition at 20 µM [25] | zone of inhibition at 80 µM [28] | inhibition zone (IZ) [29] | inhibition zone (IZ) [32] | zone of inhibition at 80 µM [34] | further results
1 | COc1cc(/C=C/C(=O)C2=C(/C=C/c3ccc(O)c(OC)c3)NC(=S)NC2c2ccc(O)c(OC)c2)ccc1O (configuration not stated) | 9 mm | inactive | 21 mm | 100 uM/ml | 12 mm | 14 mm | 13 mm | 11 mm | 14 mm | 100 uM/ml | 11 mm | inactive | 24 mm | 18 mm | 50 uM/ml | 19 mm | 11 mm | inactive | inactive | 22 mm | zone of inhibition at 40 µM [1]: 11 mm; zone of inhibition at 40 µM ([4]; NTCC 10274, 24 h, read-out: IZ): 16 mm; zone of inhibition at 160 µM ([5]; ATCC 11632, 24 h, read-out: IZ): 11 mm; zone of inhibition at 20 µM [8]: 9 mm; zone of inhibition at 20 µM ([10]; NTCC 10274, 24 h, read-out: IZ): 13 mm; zone of inhibition at 80 µM [12]: 12 mm; zone of inhibition at 160 µM ([15]; MTCC 1021, 48 h, read-out: IZ): 11 mm; zone of inhibition at 160 µM ([21]; MTCC 1108, 48 h, read-out: IZ): 16 mm; inhibition zone (IZ) [24]: inactive; inhibition zone (IZ) [26]: inactive; zone of inhibition at 80 µM [27]: 9 mm; inhibition zone (IZ) [30]: inactive; zone of inhibition at 40 µM ([31]; ATCC 35218, 24 h, read-out: IZ): 9 mm; zone of inhibition at 160 µM [33]: 21 mm; zone of inhibition at 40 µM [35]: 9 mm; zone of inhibition at 40 µM ([36]; ATCC 15499, 24 h, read-out: IZ): 9 mm; inhibition zone (IZ) [37]: inactive; zone of inhibition at 160 µM [38]: 14 mm; inhibition zone (IZ) [39]: inactive
2 | COc1cc(/C=C/C(=O)CC(=O)/C=C/c2ccc(O)c(OC)c2)ccc1O [CURCUMIN] |  | inactive |  | 100 uM/ml | 10 mm | 10 mm | 9 mm | 9 mm | 11 mm | 50 uM/ml | 8 mm | inactive | 11 mm | 8 mm | 50 uM/ml |  |  | inactive | inactive | 9 mm | inhibition zone (IZ) [2]: inactive; inhibition zone (IZ) [4]: inactive; inhibition zone (IZ) [5]: inactive; inhibition zone (IZ) [6]: inactive; inhibition zone (IZ) [10]: inactive; inhibition zone (IZ) [15]: inactive; inhibition zone (IZ) [21]: inactive; inhibition zone (IZ) [25]: inactive; MIC [40]: inactive; inhibition zone (IZ) [28]: inactive; inhibition zone (IZ) [31]: inactive; zone of inhibition at 160 µM [33]: 9 mm; MIC [41]: inactive; zone of inhibition at 40 µM [35]: 9 mm; inhibition zone (IZ) [36]: inactive; zone of inhibition at 160 µM [38]: 12 mm
3 | OC(Cn1cncn1)(Cn1cncn1)c1ccc(F)cc1F [FLUCONAZOLE] | 24 mm |  | 27 mm |  |  |  | 32 mm |  |  |  |  |  | 31 mm |  |  | 24 mm | 29 mm |  |  | 28 mm | zone of inhibition at 20 µM ([3]; MTCC 1107, 48 h, read-out: IZ): 21 mm; inhibition zone (IZ) [15]: inactive; inhibition zone (IZ) [21]: inactive; MIC [40]: inactive
